Reference: ChEMBL document CHEMBL4477221, “Discovery and Structure-Based Optimization of 2-Ureidothiophene-3-carboxylic Acids as Dual Bacterial RNA Polymerase and Viral Reverse Transcriptase Inhibitors” (J Med Chem, 2016)
In brackets after ≈: the same amount, converted by molar mass. Activity calls are given as the source filed them. The rule behind the calls is not given here.

Molecular target: Human immunodeficiency virus type 1 reverse transcriptase (Human immunodeficiency virus 1) (UniProt Q72547)
Assay: Inhibition of HIV1 reverse transcriptase using T19-Cy5 labeled 23-mer DNA/T2-TAMRA labeled 63-mer DNA as primer/template assessed as inhibition of dNTP incorporation into primer/template at 25 uM relative to control
Details: not given

| Structure (SMILES) | inhibition [%] |
| --- | --- |
| Nc1ccc(NC(=O)Nc2sc(-c3ccc(Cl)c(Cl)c3)cc2C(=O)O)cc1 | 64 |
| O=C(NCc1ccccc1)Nc1sc(-c2ccc(Cl)c(Cl)c2)cc1C(=O)O | 64 |
| CCN(Cc1ccccc1)C(=O)Nc1cc(-c2ccc(Cl)c(Cl)c2)sc1C(=O)O | 24 |
| CCN(Cc1ccccc1)C(=O)Nc1cc(-c2ccc(Cl)cc2)sc1C(=O)O | 12 |
| O=C(O)c1cc(-c2ccc(Cl)c(Cl)c2)sc1NC(=O)N(Cc1ccccc1)Cc1ccccc1 | 63 |

Test system: Human immunodeficiency virus 1
Assay: Binding affinity to bodipy-labeled HIV1 reverse transcriptase p66 W24C/K287C double mutant assessed as induction of p66 thumb and finger domain open conformation at 3 uM by fluorescence spectroscopic analysis
Details: not given

| Structure (SMILES) | Activity |
| --- | --- |
| O=C(Nc1ccccc1)Nc1sc(-c2ccc(Cl)c(Cl)c2)cc1C(=O)O | inactive |
| CC(=O)Nc1ccc(NC(=O)Nc2sc(-c3ccc(Cl)c(Cl)c3)cc2C(=O)O)cc1 | inactive |
| COc1ccc(NC(=O)Nc2sc(-c3ccc(Cl)c(Cl)c3)cc2C(=O)O)cc1 | inactive |
| CCN(Cc1ccccc1)C(=O)Nc1sc(-c2ccc(Cl)c(Cl)c2)cc1C(=O)O | inactive |
| CN(C)S(=O)(=O)Nc1ccc(NC(=O)Nc2sc(-c3ccc(Cl)c(Cl)c3)cc2C(=O)O)cc1 | inactive |
| O=C(Nc1ccc(NS(=O)(=O)c2ccccc2)cc1)Nc1sc(-c2ccc(Cl)c(Cl)c2)cc1C(=O)O | inactive |
| COC(=O)Nc1ccc(NC(=O)Nc2sc(-c3ccc(Cl)c(Cl)c3)cc2C(=O)O)cc1 | inactive |

Test system: Human immunodeficiency virus 1
Assay: Antiviral activity against HIV1 pseudoparticle expressing Gag, Gag-pol, RRE, and vesicular stomatitis virus-G protein assessed as inhibition of pseudoparticles entry into human HeLa cells pretreated for 30 mins followed by pseudoparticle addition measured 24 hrs post infection by luciferase reporter gene assay
Assay type: functional, organism-based
Details: Human immunodeficiency virus 1, HeLa; read-out: IC50

| Structure (SMILES) | IC50 [µM] |
| --- | --- |
| O=C(Nc1ccccc1)Nc1sc(-c2ccc(Cl)c(Cl)c2)cc1C(=O)O | 20 |
| COc1ccc(NC(=O)Nc2sc(-c3ccc(Cl)c(Cl)c3)cc2C(=O)O)cc1 | 35 |
| CCN(Cc1ccccc1)C(=O)Nc1sc(-c2ccc(Cl)c(Cl)c2)cc1C(=O)O | 27 |
| COC(=O)Nc1ccc(NC(=O)Nc2sc(-c3ccc(Cl)c(Cl)c3)cc2C(=O)O)cc1 | 30 |

Test system: not listed separately
Assay: Ratio of IC50 for NNRTI resistant HIV1 harboring reverse transcriptase A98G/K101E/Y181C/G190A mutant infected in human TZM-bl cells to IC50 for wild type HIV1 NL4-3 infected in human TZM-bl cells
Assay type: functional
Details: not given

| Structure (SMILES) | Ratio IC50 |
| --- | --- |
| O=C(Nc1ccccc1)Nc1sc(-c2ccc(Cl)c(Cl)c2)cc1C(=O)O | 3 |
| O=C(Nc1ccc(NS(=O)(=O)c2ccccc2)cc1)Nc1sc(-c2ccc(Cl)c(Cl)c2)cc1C(=O)O | 1 |

Test system: Human immunodeficiency virus 1
Assay: Binding affinity to bodipy-labeled HIV1 reverse transcriptase p66 W24C/K287C double mutant assessed as induction of p66 thumb and finger domain open conformation by measuring increase in bodipy fluorescence at 10 uM by stopped flow kinetic analysis
Details: not given

| Structure (SMILES) | Activity |
| --- | --- |
| O=C(Nc1ccccc1)Nc1sc(-c2ccc(Cl)c(Cl)c2)cc1C(=O)O | inactive |

Test system: not listed separately
Assay: Cytotoxicity against human HeLa cells infected with HIV1 pseudoparticle expressing Gag, Gag-pol, RRE, and vesicular stomatitis virus-G protein assessed as inhibition of cell viability at 25 uM preincubated with cells for 30 mins followed by pseudoparticle addition measured 24 hrs post infection by MTT assay relative to control
Assay type: cell-based
Details: read-out: INH

| Structure (SMILES) | cytotoxicity at 24 h, 25 µM [%] |
| --- | --- |
| O=C(Nc1ccccc1)Nc1sc(-c2ccc(Cl)c(Cl)c2)cc1C(=O)O | 0 |
| COc1ccc(NC(=O)Nc2sc(-c3ccc(Cl)c(Cl)c3)cc2C(=O)O)cc1 | 12 |
| CCN(Cc1ccccc1)C(=O)Nc1sc(-c2ccc(Cl)c(Cl)c2)cc1C(=O)O | 23 |
| COC(=O)Nc1ccc(NC(=O)Nc2sc(-c3ccc(Cl)c(Cl)c3)cc2C(=O)O)cc1 | 6 |

Molecular target: Human immunodeficiency virus type 1 reverse transcriptase (Human immunodeficiency virus 1) (UniProt Q72547)
Assay: Inhibition of TAMRA-labeled primer/template duplex binding to HIV1 Alexa 488-labeled reverse transcriptase by FRET assay
Details: not given

| Structure (SMILES) | Activity |
| --- | --- |
| O=C(Nc1ccccc1)Nc1sc(-c2ccc(Cl)c(Cl)c2)cc1C(=O)O | inactive |
| CC(=O)Nc1ccc(NC(=O)Nc2sc(-c3ccc(Cl)c(Cl)c3)cc2C(=O)O)cc1 | inactive |
| COc1ccc(NC(=O)Nc2sc(-c3ccc(Cl)c(Cl)c3)cc2C(=O)O)cc1 | inactive |
| CCN(Cc1ccccc1)C(=O)Nc1sc(-c2ccc(Cl)c(Cl)c2)cc1C(=O)O | inactive |
| CN(C)S(=O)(=O)Nc1ccc(NC(=O)Nc2sc(-c3ccc(Cl)c(Cl)c3)cc2C(=O)O)cc1 | inactive |
| O=C(Nc1ccc(NS(=O)(=O)c2ccccc2)cc1)Nc1sc(-c2ccc(Cl)c(Cl)c2)cc1C(=O)O | inactive |
| COC(=O)Nc1ccc(NC(=O)Nc2sc(-c3ccc(Cl)c(Cl)c3)cc2C(=O)O)cc1 | inactive |

Test system: not listed separately
Assay: Ratio of IC50 for NNRTI resistant HIV1 harboring reverse transcriptase K103N/V179F/Y181C mutant infected in human TZM-bl cells to IC50 for wild type HIV1 NL4-3 infected in human TZM-bl cells
Assay type: functional
Details: not given

| Structure (SMILES) | Ratio IC50 |
| --- | --- |
| O=C(Nc1ccccc1)Nc1sc(-c2ccc(Cl)c(Cl)c2)cc1C(=O)O | >4 |
| O=C(Nc1ccc(NS(=O)(=O)c2ccccc2)cc1)Nc1sc(-c2ccc(Cl)c(Cl)c2)cc1C(=O)O | >1.5 |

Test system: not listed separately
Assay: Cytotoxicity against HEK293 cells
Assay type: cell-based
Details: human, read-out: LD50 (the source's name)

| Structure (SMILES) | CC50 [µM] |
| --- | --- |
| O=C(Nc1ccccc1)Nc1sc(-c2ccc(Cl)c(Cl)c2)cc1C(=O)O | 61 |
| COc1ccc(NC(=O)Nc2sc(-c3ccc(Cl)c(Cl)c3)cc2C(=O)O)cc1 | 80 |
| CCN(Cc1ccccc1)C(=O)Nc1sc(-c2ccc(Cl)c(Cl)c2)cc1C(=O)O | 58 |
| CN(C)S(=O)(=O)Nc1ccc(NC(=O)Nc2sc(-c3ccc(Cl)c(Cl)c3)cc2C(=O)O)cc1 | > 100 |
| O=C(Nc1ccc(NS(=O)(=O)c2ccccc2)cc1)Nc1sc(-c2ccc(Cl)c(Cl)c2)cc1C(=O)O | 94 |
| COC(=O)Nc1ccc(NC(=O)Nc2sc(-c3ccc(Cl)c(Cl)c3)cc2C(=O)O)cc1 | 86 |

Test system: Staphylococcus aureus
Assay: Antibacterial activity against Staphylococcus aureus
Assay type: functional
Details: not given

| Structure (SMILES) | MIC [µg/mL] |
| --- | --- |
| O=C(Nc1ccccc1)Nc1sc(-c2ccc(Cl)c(Cl)c2)cc1C(=O)O | 6 (≈ 14.7 µM) |
| COc1ccc(NC(=O)Nc2sc(-c3ccc(Cl)c(Cl)c3)cc2C(=O)O)cc1 | 8 (≈ 18.3 µM) |
| CCN(Cc1ccccc1)C(=O)Nc1sc(-c2ccc(Cl)c(Cl)c2)cc1C(=O)O | 10 (≈ 22.3 µM) |
| CN(C)S(=O)(=O)Nc1ccc(NC(=O)Nc2sc(-c3ccc(Cl)c(Cl)c3)cc2C(=O)O)cc1 | 13 (≈ 24.6 µM) |
| O=C(Nc1ccc(NS(=O)(=O)c2ccccc2)cc1)Nc1sc(-c2ccc(Cl)c(Cl)c2)cc1C(=O)O | 3 (≈ 5.33 µM) |
| COC(=O)Nc1ccc(NC(=O)Nc2sc(-c3ccc(Cl)c(Cl)c3)cc2C(=O)O)cc1 | 25 (≈ 52 µM) |

Test system: not listed separately
Assay: Inhibition of Escherichia coli RNA polymerase
Details: not given

| Structure (SMILES) | IC50 [µM] |
| --- | --- |
| Nc1ccc(NC(=O)Nc2sc(-c3ccc(Cl)c(Cl)c3)cc2C(=O)O)cc1 | 53 |
| O=C(Nc1ccccc1)Nc1sc(-c2ccc(Cl)c(Cl)c2)cc1C(=O)O | 20 |
| O=C(NCc1ccccc1)Nc1sc(-c2ccc(Cl)c(Cl)c2)cc1C(=O)O | 43 |
| CC(=O)Nc1ccc(NC(=O)Nc2sc(-c3ccc(Cl)c(Cl)c3)cc2C(=O)O)cc1 | 27 |
| COc1ccc(NC(=O)Nc2sc(-c3ccc(Cl)c(Cl)c3)cc2C(=O)O)cc1 | 22 |
| CCN(Cc1ccccc1)C(=O)Nc1sc(-c2ccc(Cl)c(Cl)c2)cc1C(=O)O | 21 |
| CN(C)S(=O)(=O)Nc1ccc(NC(=O)Nc2sc(-c3ccc(Cl)c(Cl)c3)cc2C(=O)O)cc1 | 23 |
| O=C(Nc1ccc(NS(=O)(=O)c2ccccc2)cc1)Nc1sc(-c2ccc(Cl)c(Cl)c2)cc1C(=O)O | 8 |
| COC(=O)Nc1ccc(NC(=O)Nc2sc(-c3ccc(Cl)c(Cl)c3)cc2C(=O)O)cc1 | 19 |
| CCN(Cc1ccccc1)C(=O)Nc1cc(-c2ccc(Cl)c(Cl)c2)sc1C(=O)O | 22 |
| CCN(Cc1ccccc1)C(=O)Nc1cc(-c2ccc(Cl)cc2)sc1C(=O)O | 75 |
| O=C(O)c1cc(-c2ccc(Cl)c(Cl)c2)sc1NC(=O)N(Cc1ccccc1)Cc1ccccc1 | 7 |

Molecular target: Human immunodeficiency virus type 1 reverse transcriptase (Human immunodeficiency virus 1, UniProt Q72547)
Assay: Inhibition of HIV1 reverse transcriptase using T19-Cy5 labeled 23-mer DNA/T2-TAMRA labeled 63-mer DNA as primer/template assessed as inhibition of dNTP incorporation into primer/template
Details: not given

| Structure (SMILES) | IC50 [µM] |
| --- | --- |
| O=C(Nc1ccccc1)Nc1sc(-c2ccc(Cl)c(Cl)c2)cc1C(=O)O | 1.2 |
| CC(=O)Nc1ccc(NC(=O)Nc2sc(-c3ccc(Cl)c(Cl)c3)cc2C(=O)O)cc1 | 0.6 |
| COc1ccc(NC(=O)Nc2sc(-c3ccc(Cl)c(Cl)c3)cc2C(=O)O)cc1 | 0.8 |
| CCN(Cc1ccccc1)C(=O)Nc1sc(-c2ccc(Cl)c(Cl)c2)cc1C(=O)O | 0.9 |
| CN(C)S(=O)(=O)Nc1ccc(NC(=O)Nc2sc(-c3ccc(Cl)c(Cl)c3)cc2C(=O)O)cc1 | 0.6 |
| O=C(Nc1ccc(NS(=O)(=O)c2ccccc2)cc1)Nc1sc(-c2ccc(Cl)c(Cl)c2)cc1C(=O)O | 0.9 |
| COC(=O)Nc1ccc(NC(=O)Nc2sc(-c3ccc(Cl)c(Cl)c3)cc2C(=O)O)cc1 | 0.3 |

Test system: Human immunodeficiency virus 1
Assay: Antiviral activity against wild type HIV1 NL4-3 assessed as inhibition of viral infection in human TZM-bl cells after 48 hrs by luciferase reporter gene assay
Assay type: functional, organism-based
Details: Human immunodeficiency virus 1, NL4-3, TZM-bl

| Structure (SMILES) | IC50 [µM] |
| --- | --- |
| O=C(Nc1ccccc1)Nc1sc(-c2ccc(Cl)c(Cl)c2)cc1C(=O)O | 5 |
| O=C(Nc1ccc(NS(=O)(=O)c2ccccc2)cc1)Nc1sc(-c2ccc(Cl)c(Cl)c2)cc1C(=O)O | 15 |

Molecular target: Human immunodeficiency virus type 1 reverse transcriptase (Human immunodeficiency virus 1) (UniProt Q72547)
Assay: Effect on binding orientation of HIV1 Alexa 488-labeled reverse transcriptase to TAMRA-labeled primer/template duplex by FRET assay
Details: not given

| Structure (SMILES) | Activity |
| --- | --- |
| O=C(Nc1ccccc1)Nc1sc(-c2ccc(Cl)c(Cl)c2)cc1C(=O)O | inactive |
| CC(=O)Nc1ccc(NC(=O)Nc2sc(-c3ccc(Cl)c(Cl)c3)cc2C(=O)O)cc1 | inactive |
| COc1ccc(NC(=O)Nc2sc(-c3ccc(Cl)c(Cl)c3)cc2C(=O)O)cc1 | inactive |
| CCN(Cc1ccccc1)C(=O)Nc1sc(-c2ccc(Cl)c(Cl)c2)cc1C(=O)O | inactive |
| CN(C)S(=O)(=O)Nc1ccc(NC(=O)Nc2sc(-c3ccc(Cl)c(Cl)c3)cc2C(=O)O)cc1 | inactive |
| O=C(Nc1ccc(NS(=O)(=O)c2ccccc2)cc1)Nc1sc(-c2ccc(Cl)c(Cl)c2)cc1C(=O)O | inactive |
| COC(=O)Nc1ccc(NC(=O)Nc2sc(-c3ccc(Cl)c(Cl)c3)cc2C(=O)O)cc1 | inactive |

Test system: Human immunodeficiency virus 1
Assay: Antiviral activity against NNRTI resistant HIV1 harboring reverse transcriptase V106I/Y181C/G190A/H221Y mutant assessed as inhibition of viral infection in human TZM-bl cells after 48 hrs by luciferase reporter gene assay
Assay type: functional, organism-based
Details: Human immunodeficiency virus 1, TZM-bl

| Structure (SMILES) | IC50 [µM] |
| --- | --- |
| O=C(Nc1ccccc1)Nc1sc(-c2ccc(Cl)c(Cl)c2)cc1C(=O)O | 1 |
| O=C(Nc1ccc(NS(=O)(=O)c2ccccc2)cc1)Nc1sc(-c2ccc(Cl)c(Cl)c2)cc1C(=O)O | > 1.5 |

Test system: not listed separately
Assay: Ratio of IC50 for NNRTI resistant HIV1 harboring reverse transcriptase L100I/K103N/H221Y mutant infected in human TZM-bl cells to IC50 for wild type HIV1 NL4-3 infected in human TZM-bl cells
Assay type: functional
Details: not given

| Structure (SMILES) | Ratio IC50 |
| --- | --- |
| O=C(Nc1ccccc1)Nc1sc(-c2ccc(Cl)c(Cl)c2)cc1C(=O)O | >4 |
| O=C(Nc1ccc(NS(=O)(=O)c2ccccc2)cc1)Nc1sc(-c2ccc(Cl)c(Cl)c2)cc1C(=O)O | >1.5 |
